Experimental data taken from patent publication US20250019387A1 (Frontier Medicines Corporation, priority 0001, published 2025).

biological target: KRAS G12C and cRAF (Ras-binding domain) interaction (Homo sapiens (Human), UniProt P01116, C118S/C51S/C80L/G12C); experiment: Inhibition of KRAS G12C and cRAF binding (AlphaScreen); conditions: GMPPNP-loaded KRAS G12C, 19-20 hours incubation with compound; read-out: IC50 (Inhibition of KRAS G12C and cRAF Binding)
Method in brief: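 IC50 values come from 4-parameter nonlinear regression of AlphaScreen signal (680 nm excitation, 570 nm emission). Compound plates sat 19-20 h at room temperature before RBD and donor/acceptor beads were added in Hepes pH 7.4 buffer with 150 mM NaCl, 5 mM MgCl2, 2% DMSO for 60-90 min; biotin-AviTag-GST replaced RBD to flag assay-technology interferers.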

KRAS G12C and cRAF (Ras-binding domain) interaction, sequence (P01116 other isoform, or with tags, fused parts or gaps G12C/C51S/C80L/C118S): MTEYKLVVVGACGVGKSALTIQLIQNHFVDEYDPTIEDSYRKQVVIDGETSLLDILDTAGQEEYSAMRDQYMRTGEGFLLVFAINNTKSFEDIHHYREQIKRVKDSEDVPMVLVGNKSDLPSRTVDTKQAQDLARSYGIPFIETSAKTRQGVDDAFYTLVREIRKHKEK

IC50 | SMILES
10 to 100 nM | CC(C)N1CC[C@@H]1/C=C/C(=O)N1CC[C@@H](N(C)c2nc(OC[C@@]34CCCN3C[C@H](F)C4)nc3c(F)c(-c4cccc5cccc(Cl)c45)ncc23)C1 [Example 232, (E)-1-((R)-3-((7-(8-chloronaphthalen-1-yl)-8-fluoro-2-(((2R,7aS)-2-fluorotetrahydro-1H-pyrrolizin-7a(5H)-yl)methoxy)pyrido[4,3-d]pyrimidin-4-yl)(methyl)amino)pyrrolidin-1-yl)-3-((R)-1-isopropylazetidin-2-yl)prop-2-en-1-one]
10 to 100 nM | CN(c1nc(OC[C@@]23CCCN2C[C@H](F)C3)nc2c(F)c(-c3cccc4cccc(Cl)c34)ncc12)[C@@H]1CCN(C(=O)/C=C/[C@H]2CCN2CCO)C1 [Example 233, (E)-1-((R)-3-((7-(8-chloronaphthalen-1-yl)-8-fluoro-2-(((2R,7aS)-2-fluorotetrahydro-1H-pyrrolizin-7a(5H)-yl)methoxy)pyrido[4,3-d]pyrimidin-4-yl)(methyl)amino)pyrrolidin-1-yl)-3-((R)-1-(2-hydroxyethyl)azetidin-2-yl)prop-2-en-1-one]
10 to 100 nM | COCCN1CC[C@@H]1/C=C/C(=O)N1CC[C@@H](N(C)c2nc(OC[C@@]34CCCN3C[C@H](F)C4)nc3c(F)c(-c4cccc5cccc(Cl)c45)ncc23)C1 [Example 234, (E)-1-((R)-3-((7-(8-chloronaphthalen-1-yl)-8-fluoro-2-(((2R,7aS)-2-fluorotetrahydro-1H-pyrrolizin-7a(5H)-yl)methoxy)pyrido[4,3-d]pyrimidin-4-yl)(methyl)amino)pyrrolidin-1-yl)-3-((R)-1-(2-methoxyethyl)azetidin-2-yl)prop-2-en-1-one]
10 to 100 nM | C=CC(=O)N1C[C@H](F)[C@@H](N(C)c2nc(OCC34CCCN3CCC4)nc3c(F)c(-c4cccc5ccc(F)c(Cl)c45)ncc23)C1 [Example 237, 1-((3S,4S)-3-((7-(8-chloro-7-fluoronaphthalen-1-yl)-8-fluoro-2-((tetrahydro-1H-pyrrolizin-7a(5H)-yl)methoxy)pyrido[4,3-d]pyrimidin-4-yl)(methyl)amino)-4-fluoropyrrolidin-1-yl)prop-2-en-1-one]
10 to 100 nM | CN(c1nc(OC[C@@]23CCCN2C[C@H](F)C3)nc2c(F)c(-c3cccc4cccc(Cl)c34)ncc12)[C@@H]1CCN(C(=O)C#CC2COCCN2)C1 (stereo partly drawn) [Example 238, 1-((R)-3-((7-(8-chloronaphthalen-1-yl)-8-fluoro-2-(((2R,7aS)-2-fluorohexahydro-1H-pyrrolizin-7a-yl)methoxy)pyrido[4,3-d]pyrimidin-4-yl)(methyl)amino)pyrrolidin-1-yl)-3-(morpholin-3-yl)prop-2-yn-1-one]
100 to 500 nM | Cc1ncc(F)c(/C=C/C(=O)N2CC[C@@H](N(C)c3nc(OC[C@@]45CCCN4C[C@H](F)C5)nc4c(F)c(-c5cccc6cccc(Cl)c56)ncc34)C2)n1 [Example 241, (E)-1-((R)-3-((7-(8-chloronaphthalen-1-yl)-8-fluoro-2-(((2R,7aS)-2-fluorotetrahydro-1H-pyrrolizin-7a(5H)-yl)methoxy)pyrido[4,3-d]pyrimidin-4-yl)(methyl)amino)pyrrolidin-1-yl)-3-(5-fluoro-2-methylpyrimidin-4-yl)prop-2-en-1-one]
< 10 nM | CN1CC(C)(C#CC(=O)N2CC[C@@H](N(C)c3nc(OC[C@@]45CCCN4C[C@H](F)C5)nc4c(F)c(-c5cccc6cccc(Cl)c56)ncc34)C2)C1 [Example 242, 1-((R)-3-((7-(8-chloronaphthalen-1-yl)-8-fluoro-2-(((2R,7aS)-2-fluorohexahydro-1H-pyrrolizin-7a-yl)methoxy)pyrido[4,3-d]pyrimidin-4-yl)(methyl)amino)pyrrolidin-1-yl)-3-(1,3-dimethylazetidin-3-yl)prop-2-yn-1-one]
100 to 500 nM | Cc1cc(/C=C/C(=O)N2CCN(c3nc(OC[C@@]45CCCN4C[C@H](F)C5)nc4c(F)c(-c5cccc6cccc(Cl)c56)ncc34)CC2)nc(C)n1 [Example 243, (E)-1-(4-(7-(8-chloronaphthalen-1-yl)-8-fluoro-2-(((2R,7aS)-2-fluorotetrahydro-1H-pyrrolizin-7a(5H)-yl)methoxy)pyrido[4,3-d]pyrimidin-4-yl)piperazin-1-yl)-3-(2,6-dimethylpyrimidin-4-yl)prop-2-en-1-one]
100 to 500 nM | Cc1ncc(F)c(/C=C/C(=O)N2CC[C@@H](N(C)c3nc(OCC45CCCN4CCC5)nc4c(F)c(-c5cccc6ccc(F)c(Cl)c56)ncc34)C2)n1 [Example 244, (R,E)-1-(3-((7-(8-chloro-7-fluoronaphthalen-1-yl)-8-fluoro-2-((tetrahydro-1H-pyrrolizin-7a(5H)-yl)methoxy)pyrido[4,3-d]pyrimidin-4-yl)(methyl)amino)pyrrolidin-1-yl)-3-(5-fluoro-2-methylpyrimidin-4-yl)prop-2-en-1-one]
10 to 100 nM | C=CC(=O)N1CC(CN(C)c2nc(OC[C@@]34CCCN3C[C@H](F)C4)nc3c(F)c(-c4cccc5ccc(F)c(F)c45)ncc23)C1 [Example 246, 1-(3-(((7-(7,8-difluoronaphthalen-1-yl)-8-fluoro-2-(((2R,7aS)-2-fluorotetrahydro-1H-pyrrolizin-7a(5H)-yl)methoxy)pyrido[4,3-d]pyrimidin-4-yl)(methyl)amino)methyl)azetidin-1-yl)prop-2-en-1-one]
10 to 100 nM | Cc1ncc(F)c(/C=C/C(=O)N2CC[C@@H](N(C)c3nc(OCC45CCCN4CCC5)nc4c(F)c(-c5cccc6cccc(Cl)c56)ncc34)C2)n1 [Example 249, (R,E)-1-(3-((7-(8-chloronaphthalen-1-yl)-8-fluoro-2-((tetrahydro-1H-pyrrolizin-7a(5H)-yl)methoxy)pyrido[4,3-d]pyrimidin-4-yl)(methyl)amino)pyrrolidin-1-yl)-3-(5-fluoro-2-methylpyrimidin-4-yl)prop-2-en-1-one]
100 to 500 nM | C=CC(=O)N1CC[C@@H](N(CC2CC2)c2nc(OC[C@@]34CCCN3C[C@H](F)C4)nc3c(F)c(-c4cccc5cccc(Cl)c45)ncc23)C1 [Example 250, 1-((R)-3-((7-(8-chloronaphthalen-1-yl)-8-fluoro-2-(((2R,7aS)-2-fluorohexahydro-1H-pyrrolizin-7a-yl)methoxy)pyrido[4,3-d]pyrimidin-4-yl)(cyclopropylmethyl)amino)pyrrolidin-1-yl)prop-2-en-1-one]

SMILES | IC50
COCCN(C)C/C=C/C(=O)N1CC[C@@H](N(C)c2nc(OC[C@@]34CCCN3C[C@H](F)C4)nc3c(F)c(-c4cccc5cccc(Cl)c45)ncc23)C1 [Example 235, (E)-1-((R)-3-((7-(8-chloronaphthalen-1-yl)-8-fluoro-2-(((2R,7aS)-2-fluorohexahydro-1H-pyrrolizin-7a-yl)methoxy)pyrido[4,3-d]pyrimidin-4-yl)(methyl)amino)pyrrolidin-1-yl)-4-((2-methoxyethyl)(methyl)amino)but-2-en-1-one] | < 10 nM
C=CC(=O)N1C[C@H](N(C)c2nc(OC[C@@]34CCCN3C[C@H](F)C4)nc3c(F)c(-c4cccc5cccc(Cl)c45)ncc23)C(F)(F)C1 [Example 239, 1-((S)-4-((7-(8-chloronaphthalen-1-yl)-8-fluoro-2-(((2R,7aS)-2-fluorotetrahydro-1H-pyrrolizin-7a(5H)-yl)methoxy)pyrido[4,3-d]pyrimidin-4-yl)(methyl)amino)-3,3-difluoropyrrolidin-1-yl)prop-2-en-1-one] | 10 to 100 nM
